Results reported in patent US5919934A, “Compounds, compositions, and methods for cancer imaging and therapy” (The George Washington University, priority 1997, dated 1999).
Like-named read-outs stand apart in the source and are kept apart here. Blank lines part the entries; values can stand above or below the compound they belong to.

Key:
sigma-2 sites = target: T1, sigma-2 sites (Rattus norvegicus, UniProt Q5U3Y7); assay: Sigma-2 binding in rat liver membrane preparation against [^3 H]DTG in the presence of dextrallorphan
T1 construct: sigma-2 sites in rat liver membrane preparation; from tissue; host or cells: rat liver membranes
T1 sequence (Q5U3Y7 1-176): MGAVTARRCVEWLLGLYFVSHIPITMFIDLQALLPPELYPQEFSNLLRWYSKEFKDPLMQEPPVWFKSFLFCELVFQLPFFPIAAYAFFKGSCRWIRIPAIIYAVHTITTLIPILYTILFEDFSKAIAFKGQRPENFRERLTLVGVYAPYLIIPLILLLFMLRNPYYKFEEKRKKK

sigma-1 sites = target: T2, sigma-1 sites (Cavia porcellus, UniProt Q60492); assay: Sigma-1 binding in guinea pig brain against [^3 H]-(+)-pentazocine
T2 construct: sigma-1 sites in guinea pig brain; from tissue; host or cells: guinea pig brain

sigma receptors [1] = format: binding, human; conditions: T47D cells; for IC50: 37° C., 1 hr, against [Tc-99m]EN6, read-out: IC50 for inhibition of binding of [Tc-99m]EN6
Method: T47D human ductal breast carcinoma cells were purchased from ATCC, Rockville, Md. and cultured in serum supplemented medium DMEM containing 10% heat inactivated fetal bovine serum (GIBCO) at 37° C. The cells were adherent and split weekly in a 1:20 ratio using trypsin/EDTA (GIBCO). The cells were then transferred to 24 well plates and allowed to be adherent and confluent (about 0.5 million cells) or the cells were grown in T75 cell culture flasks and were detached when they were confluent using trypsin/EDTA (0.025%) or scraped with a cell scraper in DMEM.
Competition binding studies in human ductal breast cancer cells (T47D) were performed as follows. T47D cells were cultured in serum supplemented medium (RPMI-1640) containing 10% heat inactivated fetal bovine serum (GIBCO) at 37° C. The cells were adherent and split weekly in a 1:20 ratio using trypsin/EDTA (GIBCO). The cells were scraped using a cell scraper from T75 culture flasks and centrifuged in a Sorvall 6000B centrifuge at a speed of 4000 rpm. The growth medium was removed and the cell pellet was resuspended in […] serum free media.
The affinity of compounds for sites labeled by [Tc-99m]EN6 in human breast cancer cells was determined by heterologous in-vitro competitive binding assays in whole cells. The following method was used: A small aliquot of the cell suspension (100 μL) was incubated with [Tc-99m]EN6 and varying concentrations to (10^-4 to 10^-12 M) of arylethylenediamines keeping a total volume 1.0 mL constant. The cells were incubated at 37° C. for 1 hr and subsequently filtered through a Brandel Cell harvester (Brandel, Gaithersburg, Md.) and washed with de-ionized cold water. The radioactivity associated with the cells on filters was counted on a Beckman (DP 5500) Gamma Counter.
The data was analyzed with the iterative nonlinear least square curve fitting program GraphPAD Inplot (Graph PAD Software, San Diego, Calif.). The Cheng-Prussoff equation was then used to convert IC50 values to apparent K1 values.

sigma receptors [2] = target: T3, sigma receptors (Homo sapiens, UniProt Q5BJF2); conditions: MCF-7 cells, Scatchard's analysis; cited from earlier work
T3 construct: MCF-7 breast tumor cells express sigma receptors; host or cells: MCF-7 cells

[3] = test system: non-melanoma cells in the liver and lung; conditions: cited from earlier work
sigma receptors [4] = conditions: human breast and melanoma tumor cells; cited from earlier work
sigma receptor = conditions: guinea pig brain; cited from earlier work
[5] = test system: sigma-1 and sigma-2 receptors; assay: In-vivo blocking with BD1008 in Sprague-Dawley rats; conditions: 2 micromol BD1008 co-injected
Method: Animal biodistribution and blocking studies were performed in rats as follows. Sprague Dawley rats (200-250 g) were anesthetized with ketamine/xylazine and injected intravenously with ^99m Tc-EN6, XXIII, ([…]) in 0.2 ml saline containing up to 20% ethanol solution. At 0.5, 1, and 4 hr post-injection blood samples were drawn by cardiac puncture and the rats were sacrificed thereafter by cardiectomy while under ketamine/xylazine anesthesia. The organs of interest were then excised, blotted with tissue paper, weighed and the radioactivity counted. The % injected dose/organ was determined by comparison of the tissue radioactivity with suitably diluted, known quantity aliquots of the injected dose. […] The animals were sacrificed at 4 hr post-injection and the organs of interest were removed and handled as above.
S. B. Hellewell, et al., Rat liver and kidney contain high densities of sigma-1 and sigma-2 receptors: characterization by ligand binding and photoaffinity labeling, Eur. J. Pharmacol.--Mol. Pharmacol. Sect. 268:9-18 (1994), all of which are hereby incorporated by reference.

T2 sequence (Q60492 whole entry): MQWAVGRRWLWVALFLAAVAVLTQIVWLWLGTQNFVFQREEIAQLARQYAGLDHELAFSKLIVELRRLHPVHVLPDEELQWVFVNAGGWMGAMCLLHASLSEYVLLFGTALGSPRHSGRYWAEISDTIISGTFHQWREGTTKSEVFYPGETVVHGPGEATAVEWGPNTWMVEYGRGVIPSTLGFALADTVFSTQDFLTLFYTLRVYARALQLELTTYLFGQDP
T3 sequence (Q5BJF2 whole entry): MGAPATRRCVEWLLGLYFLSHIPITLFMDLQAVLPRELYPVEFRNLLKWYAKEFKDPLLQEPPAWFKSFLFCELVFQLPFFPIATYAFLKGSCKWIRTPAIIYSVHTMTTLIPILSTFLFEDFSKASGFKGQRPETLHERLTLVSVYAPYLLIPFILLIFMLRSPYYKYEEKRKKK

Compound: CN(CCc1ccc(I)cc1)CCN1CCCCC1 [IPEMP]
- Ki (sigma-2 sites): 15.2 ± 2.35 nM
- Ki (sigma-1 sites): 0.82 ± 0.13 nM
- inhibition of [Tc-99m]EN6 binding (sigma receptors [1]): dose-dependent inhibition of binding
- IC50 (sigma receptors [1]): 59 ± 5 nM

Compound: O=C(NC1CCN(Cc2ccccc2)CC1)c1ccc([125I])cc1 [4-[^125 I]-4-(N-benzylpiperidin-4-yl)-4-iodobenzamide]
- receptors per cell (sigma receptors [2]): approximately a million

Compound: CCN(CC)CCNC(=O)c1ccc(I)cc1 [IDAB, N-(diethylaminoethyl)4-iodobenzamide]
- uptake by non-melanoma cells [3]: taken up in high concentrations

Compound: CN(CCc1ccc([125I])cc1)CCN1CCCCC1 [4-[^125 I]PEMP, [^125 I]N-[2-(4-iodophenyl)ethyl]-N-methyl-2-(1-piperidinyl)ethylamine]
- specific binding to the sigma receptors (sigma receptors [4]): very high specific binding
- inhibition binding isotherms (sigma receptor): consistent with sigma receptor pharmacology

- Ki (sigma-2 sites; rat liver membrane, against [^3 H]DTG in the presence of dextrallorphan, read-out: Ki for sigma-2 sites): 8.1 ± 2.2 nM
- inhibition of [Tc-99m]EN6 binding (sigma receptors [1]): dose-dependent inhibition of binding
- IC50 (sigma receptors [1]): 47 ± 2 nM
Compound: CN(CCc1ccc(Cl)c(Cl)c1)CCN1CCCC1 [BD1008]
- inhibition of binding of ^99m Tc-complex in the kidneys ([5]; kidneys, 4 hr post-i.v. injection): about 60%
- reduction of radioactivity in liver ([5]; liver, 4 hr post-injection): 34%
- reduction of radioactivity in lungs ([5]; lungs, 4 hr post-injection): 48%
